From PMC6274106, “Evaluation and Comparison of the Inhibition Effect of Astragaloside IV and Aglycone Cycloastragenol on Various UDP-Glucuronosyltransferase (UGT) Isoforms” (Molecules, 2016)

Tests used:
Format in all cases: biochemical
UGT1A8 = target: T1, UGT1A8 (Homo sapiens, UniProt Q9HAW9); experiment: 4-MU glucuronidation by recombinant UGT supersomes, UPLC-UV; Dixon and Lineweaver-Burk plots (IC50 […])
T1 construct: recombinant human UGT supersomes (baculovirus-infected insect cells)
T1 sequence (Q9HAW9 26-530): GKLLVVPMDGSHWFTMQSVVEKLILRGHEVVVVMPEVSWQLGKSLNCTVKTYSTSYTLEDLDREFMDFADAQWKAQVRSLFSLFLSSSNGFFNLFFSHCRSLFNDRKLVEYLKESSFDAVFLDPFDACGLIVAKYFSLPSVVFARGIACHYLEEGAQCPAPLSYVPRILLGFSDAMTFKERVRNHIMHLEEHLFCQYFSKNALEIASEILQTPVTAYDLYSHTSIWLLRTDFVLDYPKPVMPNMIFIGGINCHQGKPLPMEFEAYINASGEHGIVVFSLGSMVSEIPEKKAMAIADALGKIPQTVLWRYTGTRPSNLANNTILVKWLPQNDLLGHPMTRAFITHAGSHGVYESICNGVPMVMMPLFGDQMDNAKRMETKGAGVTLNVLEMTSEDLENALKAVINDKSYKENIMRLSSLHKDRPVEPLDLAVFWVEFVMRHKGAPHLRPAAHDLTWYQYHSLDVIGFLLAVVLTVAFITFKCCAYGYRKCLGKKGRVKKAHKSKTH

UGT2B7 [1] = target: T2, UGT2B7 (Homo sapiens, UniProt P16662); experiment: as above
T2 construct: recombinant human UGT supersomes (baculovirus-infected insect cells)
T2 sequence (P16662 24-529): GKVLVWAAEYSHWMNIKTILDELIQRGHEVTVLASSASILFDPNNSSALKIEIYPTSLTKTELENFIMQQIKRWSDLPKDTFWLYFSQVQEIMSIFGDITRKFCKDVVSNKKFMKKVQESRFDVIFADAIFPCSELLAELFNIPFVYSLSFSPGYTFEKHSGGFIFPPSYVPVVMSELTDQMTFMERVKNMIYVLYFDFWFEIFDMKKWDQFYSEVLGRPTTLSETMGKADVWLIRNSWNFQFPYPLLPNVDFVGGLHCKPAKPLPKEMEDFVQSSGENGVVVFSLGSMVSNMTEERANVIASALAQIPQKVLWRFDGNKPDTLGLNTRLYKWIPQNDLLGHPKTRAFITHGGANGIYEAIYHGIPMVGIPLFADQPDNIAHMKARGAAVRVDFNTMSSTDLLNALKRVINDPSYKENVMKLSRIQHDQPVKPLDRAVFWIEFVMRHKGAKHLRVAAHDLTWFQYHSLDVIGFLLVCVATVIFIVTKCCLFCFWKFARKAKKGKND

UGT1A3 = target: T3, UGT1A3 (Homo sapiens, UniProt P35503); experiment: 4-MU glucuronidation screen, […] inhibition at […]
T3 construct: recombinant human UGT supersomes (baculovirus-infected insect cells)
T3 sequence (P35503 29-534): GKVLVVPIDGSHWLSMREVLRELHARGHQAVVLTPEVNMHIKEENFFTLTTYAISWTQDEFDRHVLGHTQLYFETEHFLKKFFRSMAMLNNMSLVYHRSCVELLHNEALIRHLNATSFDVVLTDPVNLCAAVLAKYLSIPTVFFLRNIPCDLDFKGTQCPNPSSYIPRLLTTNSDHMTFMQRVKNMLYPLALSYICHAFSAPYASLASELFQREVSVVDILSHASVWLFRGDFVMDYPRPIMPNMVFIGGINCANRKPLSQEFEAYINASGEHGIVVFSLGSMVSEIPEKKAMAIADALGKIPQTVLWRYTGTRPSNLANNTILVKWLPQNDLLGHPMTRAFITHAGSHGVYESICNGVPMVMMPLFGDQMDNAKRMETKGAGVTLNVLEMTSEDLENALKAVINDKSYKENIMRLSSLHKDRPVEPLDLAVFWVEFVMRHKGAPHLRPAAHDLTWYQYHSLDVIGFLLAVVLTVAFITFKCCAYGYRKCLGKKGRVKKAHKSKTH

UGT1A1 = target: T4, UGT1A1 (Homo sapiens, UniProt P22309); experiment: 4-MU glucuronidation screen, […] inhibition at […]
T4 construct: recombinant human UGT supersomes (baculovirus-infected insect cells)
T4 sequence (P22309 26-533): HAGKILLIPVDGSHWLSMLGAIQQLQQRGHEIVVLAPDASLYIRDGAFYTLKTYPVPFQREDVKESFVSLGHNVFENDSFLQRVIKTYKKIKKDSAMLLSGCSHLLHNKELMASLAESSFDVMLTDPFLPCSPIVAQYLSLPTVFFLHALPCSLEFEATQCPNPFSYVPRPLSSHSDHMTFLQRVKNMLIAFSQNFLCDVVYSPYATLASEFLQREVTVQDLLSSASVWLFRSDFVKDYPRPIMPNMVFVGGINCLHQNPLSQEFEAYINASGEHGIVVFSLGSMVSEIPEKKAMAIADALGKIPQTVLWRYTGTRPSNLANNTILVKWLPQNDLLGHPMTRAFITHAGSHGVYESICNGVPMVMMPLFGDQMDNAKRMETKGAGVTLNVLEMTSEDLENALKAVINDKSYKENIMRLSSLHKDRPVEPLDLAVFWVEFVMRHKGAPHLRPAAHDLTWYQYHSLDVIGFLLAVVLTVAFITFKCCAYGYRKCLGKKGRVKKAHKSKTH

UGT2B7 [2] = target: T2, UGT2B7; experiment: 4-MU glucuronidation screen, […] inhibition at […]

CC(C)(O)[C@@H]1CC[C@](C)([C@H]2[C@@H](O)C[C@@]3(C)[C@@H]4C[C@H](O)[C@H]5C(C)(C)[C@@H](O)CC[C@@]56C[C@@]46CC[C@]23C)O1 [CAG, cycloastragenol]
Ki (UGT1A8): 0.034 µM
Ki (UGT2B7 [1]): 21 µM
inhibition at 100 µM (UGT1A3): 75.2%
inhibition at 100 µM (UGT1A1): 50.2%

CC(C)(O)[C@@H]1CC[C@](C)([C@H]2[C@@H](O)C[C@@]3(C)[C@@H]4C[C@H](O[C@@H]5O[C@H](CO)[C@@H](O)[C@H](O)[C@H]5O)[C@H]5C(C)(C)[C@@H](O[C@@H]6OC[C@@H](O)[C@H](O)[C@H]6O)CC[C@@]56C[C@@]46CC[C@]23C)O1 [AST, astragaloside IV]
inhibition at 100 µM (UGT2B7 [2]): 51.5%
